Assay results as given in patent US11369654B2, “Application method of Dendrobium candidum in preparing medicine for treating hypertension” (Hangzhou Danhe Pharmaceutical CO., Ltd., priority 2017, dated 2022).
Where “and” joins values, the source holds several entries; their conditions need not be identical. Identical values can stand only once.

Assays:
[1] = tested on: Spontaneously Hypertensive Rats (SHR); assay: Experiment 4: antihypertensive effect of the sample of Example 1 on SHR; format: in vivo, rat
Experimental: Rats: Spontaneously Hypertensive Rats (SHR), Wistar rats were used as normal controls.
Rat Blood Pressure Measurement: BP-98A Non-invasive Tail Artery Blood Pressure Meter, Japan Soft Rotation Co., Ltd.
(§1) Group therapy is described in the following description. Blood pressure and body weight are measured and grouped after one week of adaptive feeding in all rats. […] Eight rats in each group are treated for 2 weeks.
The following description describes the blood pressure measurement. The rats are preheated at 38° C. for 5-10 minutes to avoid blood flow in the tail of the rat. The blood pressure of the rats is measured three times in a waking and quiet state, and the average value of three times is used as the blood pressure of the rats. Blood pressure is measured twice a week, once 2 hours after administration and once 24 hours after administration, to observe the immediate antihypertensive effect and after 24 hours antihypertensive effect (and the peak-to-valley ratio).
(§2) The following description discusses the trough-peak ratio calculation of depressurization amplitude. The difference of blood pressure before treatment minus 24 hours after administration is the trough of the range of blood pressure reduction, which is the lowest point before the next administration; the difference of blood pressure before treatment and 2 hours after administration is the peak value of blood pressure reduction, that is, the maximum point of blood pressure reduction after administration. Valley value of depressurization amplitude divided by peak value of depressurization amplitude is equal to valley-peak ratio of depressurization amplitude.

[2] = tested on: Spontaneously Hypertensive Rats (SHR); assay: Experiment 5: antihypertensive effect of the sample of Example 2 on SHR; format: in vivo, rat
Experimental: Rats: Spontaneously Hypertensive Rats (SHR), Wistar rats are used as normal controls.
Rat Blood Pressure Measurement: BP-98A Non-invasive Tail Artery Blood Pressure Meter, Japan Soft Rotation Co., Ltd
as §1
The following description discussed with the blood pressure measurement. The rats are preheated at 38° C. for 5-10 minutes to avoid blood flow in the tail of the rat. The blood pressure of the rats is measured three times in a waking and quiet state, and the average value of three times was used as the blood pressure of the rats. Blood pressure is measured twice a week, once 2 hours after administration and once 24 hours after administration, to observe the immediate antihypertensive effect and after 24 hours antihypertensive effect (and the peak-to-valley ratio).
as §2, with “discusses with” for “discusses”

[3] = 2 h after administration, treatment for 1 week, medium dose 0.8 g/kg crude drug, amlodipine 0.5 mg/kg
[4] = 2 h after administration, treatment for 2 weeks, medium dose 0.8 g/kg crude drug, amlodipine 0.5 mg/kg
[5] = 24 h after administration, treatment for 1 week, medium dose 0.8 g/kg crude drug, amlodipine 0.5 mg/kg
[6] = 24 h after administration, treatment for 2 weeks, medium dose 0.8 g/kg crude drug, amlodipine 0.5 mg/kg
[7] = before treatment, medium dose group 0.8 g/kg crude drug, amlodipine group 0.5 mg/kg
[8] = treatment for 1 week, medium dose 0.8 g/kg crude drug, amlodipine 0.5 mg/kg
[9] = treatment for 2 weeks, medium dose 0.8 g/kg crude drug, amlodipine 0.5 mg/kg

CCOC(=O)C1=C(COCCN)NC(C)=C(C(=O)OC)C1c1ccccc1Cl (centres unmarked) [Amlodipine, amlodipine besylate]
diastolic blood pressure [1, 3]: 145.9 mmHg
systolic blood pressure [1, 3]: 176.7 ± 7.42 mmHg
diastolic blood pressure [1, 4]: 144.8 mmHg
systolic blood pressure [1, 4]: 178.7 ± 5.64 mmHg
diastolic blood pressure [1, 5]: 156.5 mmHg
systolic blood pressure [1, 5]: 202.6 mmHg
diastolic blood pressure [1, 6]: 157.3 mmHg
systolic blood pressure [1, 6]: 204.9 mmHg
diastolic blood pressure [1, 7]: 158.2 mmHg
systolic blood pressure [1, 7]: 211.7 ± 7.57 mmHg and 211.7 mmHg and 211.7 ± 17.57 mmHg
2-hour hypotensive amplitude (peak of systolic blood pressure reduction) [1, 8]: 35.0 mmHg
24-hour hypotensive amplitude (trough of systolic blood pressure reduction) [1, 8]: 9.1 mmHg
valley-peak ratio of Systolic Blood Pressure Reduction [1, 8]: 0.26
2-hour hypotensive amplitude (peak of systolic blood pressure reduction) [1, 9]: 33.0 mmHg
24-hour hypotensive amplitude (trough of systolic blood pressure reduction) [1, 9]: 6.8 mmHg
valley-peak ratio of Systolic Blood Pressure Reduction [1, 9]: 0.21
diastolic blood pressure [2, 3]: 146.8 mmHg
systolic blood pressure [2, 3]: 178.2 mmHg
diastolic blood pressure [2, 4]: 148.5 mmHg
systolic blood pressure [2, 4]: 180.5 mmHg
diastolic blood pressure [2, 5]: 157.1 mmHg
systolic blood pressure [2, 5]: 203.5 mmHg
diastolic blood pressure [2, 6]: 157.6 mmHg
systolic blood pressure [2, 6]: 205.6 mmHg
diastolic blood pressure [2, 7]: 159.6 mmHg
systolic blood pressure [2, 7]: 212.7 mmHg and 212.7 ± 6.87 mmHg
2-hour hypotensive amplitude (peak of systolic blood pressure reduction) [2, 8]: 34.5 mmHg
24-hour hypotensive amplitude (trough of systolic blood pressure reduction) [2, 8]: 9.2 mmHg
valley-peak ratio of Systolic Blood Pressure Reduction [2, 8]: 0.27
2-hour hypotensive amplitude (peak of systolic blood pressure reduction) [2, 9]: 32.2 mmHg
24-hour hypotensive amplitude (trough of systolic blood pressure reduction) [2, 9]: 7.1 mmHg
valley-peak ratio of Systolic Blood Pressure Reduction [2, 9]: 0.22
